This is an account of results in patent US4551538A, “Phenylpyrazolidine acetic acid derivatives” (American Home Products Corporation, priority 1984, dated 1985).

For one assay, the system named is cyclooxygenase. Particulars: background statement; cited from earlier work.
The test system of assay [1] is arachidonic acid lipoxygenase oxidation product 5-HETE. The assay can be described thus: inhibition of 5-HETE synthesis by rat glycogen-elicited polymorphonuclear leukocytes. The class given is cell-based, rat (Wistar). Particulars: Leukocyte; rat PMN, A23187 10 μM, [14C] arachidonic acid; read-out: 50% Inhibitory Concentration of (IC50) 5-HETE. The protocol:
The assay of this Example measures the ability of the compounds of the invention to inhibit the synthesis of 5-HETE by rat glycogen-elicited polymorphonuclear leukocytes.
The assay is carried out as follows:
(§1) Peritoneal PMN are obtained from female Wistar rats (150-250 g) that received an i.p. injection of 6% glycogen (10 ml). After 24 hours, rats are killed by CO2 asphyxiation and peritoneal cells are harvested by peritoneal lavage using Ca^++ and Mg^++ free Hanks' balanced salt solution (HBSS). The peritoneal exudate is centrifuged at 400 g for 10 minutes. After centrifugation, the lavaged fluid is removed and the cell pellet is resuspended in HBSS containing Ca^++ and Mg^++ and 10 mM L-cysteine at a concentration of 2×10^7 cells/ml. To 1 ml portions of cell suspension, test drugs or vehicle are added and incubated at 37° C. for 10 minutes. Following this preincubation, the calcium ionophore (10 μM), A23187, is added together with 0.5 μCi [^14 C] arachidonic acid and further incubated for 10 minutes. The reaction is stopped by the addition of ice cold water (3 ml) and acidifying to pH 3.5. Lipoxygenase products are then extracted twice into diethyl ether. The pooled ether extracts are evaporated to dryness under nitrogen and the residue is redissolved in a small volume of methanol and spotted on aluminum backed pre-coated thin layer chromatographic plates. The samples are then co-chromatographed with authentic reference 5-HETE, in the solvent system--hexane:ether:acetic acid (50:50:3). After chromatography, the areas associated with 5-HETE standard are identified by autoradiography, cut out and quantitated by liquid scintillation.
(§2) Results are expressed as % inhibition of [^14 C]5-HETE synthesis. [formula]

Assay [2] relates to phenylbenzoquinone-induced writhing. The assay can be described thus: phenylbenzoquinone-induced writhing test. The format is in vivo, mouse (CF-1). Particulars: 200 mg/kg; Control = 4.0. Here is the method: In this procedure, test compound or vehicle is administered at various doses to ten male CF-1 mice, weighing 20-25 g, per dose level. The animals then receive intraperitoneal injection with 0.25 ml of the writhing agonist (a 0.02% solution of benzoquinone) 5 minutes before the beginning of a pre-selected, 10-minute observation period. Typical observation periods include 10 to 20, 25 to 35, 40 to 50 and 55 to 65 minutes following administration of the test compound. The mice are observed during the observation period and the total numbers of writhes are determined for each mouse.

Assay [3] relates to arachidonic acid cyclooxygenase oxidation product PGE2. The assay can be described thus: inhibition of PGE2 synthesis by rat polymorphonuclear leukocytes. The class given is cell-based, rat (Wistar). Particulars: Leukocyte; rat PMN, A23187 10 μM, [14C] arachidonic acid; read-out: 50% Inhibitory Concentration (IC50), PGE2. The protocol:
as §1, §2
However, in order to determine cyclooxygenase activity, the samples are cochromatographed with authentic reference PGE2 in the solvent system ethyl acetate:formic acid (80:1) and the upper phase of ethyl acetate:isoctane:acetic acid:water (110:50:20:100). After chromatography, the areas associated with PGE2 standard are identified by autoradiography, cut out and quantitated by liquid scintillation techniques.

Assay [4] has as its system TPA-induced mouse ear edema. The assay can be described thus: 12-O-tetradecanoylphorbol acetate (TPA)-induced murine ear edema test. The class given is in vivo, mouse (Swiss Webster). The source says: (§3) The ability of the compounds of the invention to inhibit the lipoxygenase and cyclooxygenase pathways of arachidonic acid is examined in the in vivo arachidonic acid (AA)-/12-O-tetradecanoylphorbol acetate (TPA)-induced murine ear edema test.
(§4) According to this test, Swiss Webster female mice (Buckshire), approximately 8 weeks old, are placed into plastic boxes in groups of six. Eight groups of mice receive AA topically on the right ear, and another 8 groups receive TPA topically on the right ear. AA and TPA are dissolved in acetone at concentrations of 100 mg/ml and 100 μg/ml respectively. The phlogistics are applied to the right ear by the means of an automatic pipet. Volumes of 10 μl are applied to the inner and outer surfaces of the ear. Each mouse receives either 2 mg/ear AA or 4 μg/ear TPA. The left ear (control) receives acetone delivered in the same manner. Oral and topical dosing regimens are as follows: (1) drugs are given 30 minutes prior to AA treatment, and (2) drugs are given 30 minutes after treatment with TPA.
(§5) Measurements are taken with Oditest calipers, 0-10 mm with 0.01 graduations. The right and left ears are measured after 1 hour AA-induced inflammation and 4 hours after TPA-induced inflammation.
(§6) The difference between right and left ear thickness is calculated and the significance is determined by a one way analysis of variance with Dunnett's comparisons to control (P=0.05). Drug effects are expressed as a percent change from control values: [formula]

The test system of another assay is lipoxygenase. Particulars: background statement; cited from earlier work.
The test system of assay [5] is acute inflammatory response (carrageenan rat paw edema). Put plainly: carrageenan rat paw edema test. Particulars: Rattus norvegicus, po, 3 h; perorally, 1 h prior to carrageenan; read-out: ED50, paw edema. The class given is in vivo, rat (Sprague-Dawley). Here is the method: In this test, male Sprague-Dawley (Charles River) rats weighing 140-180 gm, in groups of 6 animals, are injected subcutaneously in the right paw with 0.1 ml of 1% carrageenan at zero time. Mercury plethysmographic readings (ml) of the paw are made at zero time and 3 hours later. Drugs are suspended or dissolved in 0.5% methylcellulose and given perorally one hour prior to carrageenan. The increase in paw volume (edema in ml) produced by the inflammatory agent, carrageenan, is measured.
Unpaired Student's t-test is used to determine statistical significance.
In general terms: In the carrageenan paw model, swelling and tenderness develop within hours.

The subject of assay [6] is AA-induced mouse ear edema. The assay can be described thus: arachidonic acid (AA)-induced murine ear edema test. The class given is in vivo, mouse (Swiss Webster).
Excerpt: as §3, §4, §5, §6

The subject of assay [7] is urate-induced canine synovitis. The assay can be described thus: urate-induced canine synovitis test. Conditions: Canis lupus familiaris; oral, 2 h after urate; read-out: Oral ED50. The format is in vivo, dog (mongrel). Here is the method:
In this procedure, healthy mongrel dog of either sex weighing between 14-20 kg are adapted to a measuring platform. […] A Hewlett Packard 75C computer then converts voltage into kilogram units (mean pressure reading for 1 minute). This control pressure represents the 100% value in this procedure. Synovitis is induced by injecting 5 mg of sodium urate crystals (5-15μ in length) in 1 ml of 0.9% saline solution into the synovial space of the right or left knee. Readings are taken at 1, 2, 2.5, 3, 3.5, 4, 4.5 and 5 hours after urate administration and calculated as a percentage of control hind paw pressure. […] Dogs are used only once in these experiments to prevent tolerance.
Each dog is placed on the pressure measuring apparatus with its left or right hind paw centered above the load cell, and pressure readings are recorded for one minute. Two or three control readings are averaged and represent control paw pressure. Single pressure readings are taken after sodium urate injection.
Drug effects are expressed as a percentage of control paw pressure which is calculated as follows:
Test reading/Control reading×100
Test reading=Pressure measurement after sodium urate injection and drug or no drug (blank capsule).
Control reading=Mean pressure measurement before sodium urate injection.
A one-way analysis of variance with Dunnett's comparisons to control (α=0.05 and 0.01) was used to determine statistical significance.

Each structure is given as a SMILES string.

The ED50 is the dose that gives a 50% effect, or the effect in half of the subjects.

For `O=C1CCN(c2ccccc2)N1` [phenidone, 1-phenyl-3-pyrazolidone, reference compound], the “inhibition of cyclooxygenase activity” value in the assay on cyclooxygenase is “inhibitors of both cyclooxygenase and lipoxygenase activity”. Also, the figures for the IC50 in assay [1] and in assay [3] were 12 µM and above 100 µM, respectively. The “Mean No. of Writhes” value in assay [2] was 2.2. The ED50 in [4] (Mus musculus, 4 h, oral) was found to be 235 mg/kg; in assay [5], 196 mg/kg; in [6] (Mus musculus, 1 h, oral), 84 mg/kg; in assay [7], 4.3 mg/kg. For the same compound, in [4] (topical), the “ED50, TPA ear edema” value is listed as 0.6 mg/ear. The “inhibition of lipoxygenase activity” value in the assay on lipoxygenase is “inhibitors of both cyclooxygenase and lipoxygenase activity”. The “ED50, AA ear edema” value in [6] (topical) stood at 0.1 mg/ear.
